Experiments:
[1] = tested on: FoxM1B/C mRNA; test: Downregulation of FoxM1B/C mRNA by RT-qPCR in human fibroblasts; assay type: cell-based; conditions: Fibroblast, 24 hours, Hill fit, read-out: EC50 for decline of FoxM1B/C mRNAs lacking exon 9
Experimental: (§1) FIGS. 1A, 1B and 1C. Induction of alternative splicing of FoxM1 towards FoxM1A in fibroblasts. Human fibroblasts were incubated with cpds. 1-4 at different doses for 24 hours, and changes in FoxM1A RNA (containing exon A2) and FoxM1B/C (lacking exon A2) mRNA expression were assessed by RT-qPCR. Dose response curves were fitted to a Hill binding equation to estimate the EC50. FIG. 1A., upregulation of FoxM1A mRNA; FIG. 1B., downregulation of FoxM1B/C mRNA; FIG. 1C., Correlation of EC50 values for FoxM1A upregulation and FoxM1B/C downregulation. Data represent means±SEM of 4 independent observations.
(§2) To investigate an effect on splicing of FoxM1, human fibroblasts were treated for 24 hours with cpds. 1-4 in dose response, and analysed by RT-qPCR for presence of mRNA including (FoxM1A) or excluding (FoxM1B/C) the Δ9 exon. The resulting dose response curves were fitted to a Hill binding equation. […] 1, 2, 3 and 4, respectively. […] 1, 2, 3 and 4, respectively.
(§3) Fibroblasts, at 10000 cells per cm^2 were treated with varying doses of compounds ([…]) for 24 hours. RNA extraction was performed as per instructions mentioned in the Ambion® Cells-to-CT™ Kits from Applied Biosystems®. RNA samples were frozen at −20° C. until further analysis. Relative expression levels of FoxM1A or FoxM1B/C along with GAPDH for internal control, was measured using one-step multiplex reverse transcription-polymerase chain reaction (RT-PCR). TaqMan® FAM probes were used for relative quantitation of FoxM1A or FoxM1B/C expression levels and TaqMan® VIC probes were used for relative quantitation of human GAPDH levels. The fidelity of the amplification methods was determined using the ΔΔCt relative quantification method for quantitative PCR.

[2] = tested on: FoxM1A mRNA; test: Upregulation of FoxM1A mRNA by RT-qPCR in human fibroblasts; assay type: cell-based; conditions: Fibroblast, 24 hours, Hill fit, read-out: EC50 for increased expression of FoxM1A mRNA including exon 9
Experimental: as §1, §2, §3

[3] = tested on: FoxM1A protein; test: Western blot, FoxM1A protein in BT474 breast cancer cells; assay type: cell-based, human; conditions: BT474, 10 μM
Experimental: (§4) Upregulation of FoxM1A protein correlates with cytotoxicity in breast cancer cells. Human BT474 breast cancer cells were treated with cpd. 2 at 10 μM for 1 or 2 days under proliferating conditions (in the presence of serum), and total protein extracts analyzed by SDS PAGE and Western Blot for FoxM1A and actin protein levels. To assess if increase in FoxM1A protein by alternative splicing of FoxM1 towards FoxM1A induces cell death in a cancer condition, human breast cancer cells (BT474) were treated to modulate FoxM1 expression, and FoxM1A protein levels were assessed at day 1 and 2 of treatment. On day 1 and 2 under control conditions, FoxM1A was detectable by Western Blot, but at low concentrations. Treatment with cpd. […] 2 at 10 μM, whereas FoxM1A levels were increased in the same samples by nearly 3-fold. When normalized to actin, FoxM1A protein levels increased by 28-fold by treatment with cpd. 2 at 10 μM. […] Data represent means±SEM of 3 independent observations. Statistical comparison was performed by one-way ANOVA followed by Dunnet's post-hoc test. *, p<0.05, ***, p<0.001.
Human myoblasts were acquired from ECACC, BT474 cells were obtained from ATCC, and were cultivated according to supplier protocols. For experimental purpose, human myoblasts were cultivated for 5 days and were treated with varying doses of compounds (0.1-10 μM). BT474 cells were cultivated for up to 2 days and treated with compounds at 10 μM. For Western blot analyses, myoblast cells treated over 5 days or BT474 cells treated for 2 days were lysed in boiling Laemmli buffer (Bio-Rad) containing 100 mM dithiothreitol. SDS PAGE blots were probed with rabbit-anti FoxM1 antibody (Cell Signaling Technology, 1:1000), goat anti-Actin (Santa Cruz Biotechnology, 1:20000) and Alexa680/800 secondary antibodies (Molecular Probes, 1:10,000). Fluorescence was acquired with the Odyssey imaging system (Licor Biosciences), FoxM1A intensity was normalized for actin. Data were analyzed using GraphPad software.

[4] = tested on: human fibroblasts; test: Cytotoxicity in fibroblasts; assay type: cell-based; conditions: dose response, 75% cut-off, 24 hours
Experimental: (§5) FIGS. 2A, 2B and 2C. Induction of proliferation arrest and cell death by cpds. Alternating FoxM1 splicing towards FoxM1A in fibroblasts. Human fibroblasts were incubated with cpds. 1-4 at different doses for 5 days (120 hours), and changes in cellular impedance (Cell Index) were assessed online. Data are expressed as delta Cell Index after normalization for the starting value of each well. Data at 72, 96 and 120 hour time points (see arrows) were averaged for quantification. FIG. 2A, Micronuclei induction (MNT) in fibroblasts with increasing doses of cpd. 1-4; FIG. 2B, Dose-dependent induction of cytotoxicity by cpds. 1-4. expressed as % of untreated control after 24 hours. A cut-off at 75% (ED75%, dashed line) defined the concentration at which a meaningful impact on proliferation and cell survival was observed. […] 1-4. expressed as % of untreated control. […]
(§6) For investigation of the effect of altered FoxM1 expression on micronucleus induction (MNT) and cell survival, human fibroblasts were treated for up to 120 hours with cpds. 1-4 in dose response, and MNT, cytotoxicity or Cell Index were assessed on the xCELLigence platform, monitoring proliferation rates and cell death online. To define a quantitative measure for cytotoxic effects, a 2% cut-off for MNT induction (FIG. 2A), a 75% cut-off for cell survival (EC75%), and a 75% cut-off was estimated (ED75%). […]

[5] = tested on: human fibroblasts; test: Cell Index (cellular impedance, xCELLigence) in fibroblasts; assay type: cell-based; conditions: up to 120 hours, 75% cut-off
Experimental: as §5, §6

[6] = tested on: Human BT474 breast cancer cells; test: Western blot, actin protein in BT474 breast cancer cells; assay type: cell-based; conditions: BT474, 10 μM
Experimental: as §4
(§7) Human myoblasts were acquired from ECACC, BT474 cells were obtained from ATCC, and were cultivated according to supplier protocols. […] Fluorescence was acquired with the Odyssey imaging system (Licor Biosciences), FoxM1A intensity was normalized for actin. Data were analyzed using GraphPad software.

[7] = tested on: human fibroblasts; test: Micronuclei induction (MNT) in fibroblasts; assay type: cell-based; conditions: dose response, 2% cut-off
Experimental: as §5, §6

[8] = tested on: FoxM1A protein; test: Western blot, FoxM1A protein in differentiating (non-proliferating) human myoblasts; assay type: cell-based; conditions: differentiating conditions (no serum), 5 days, doses up to 10 μM
Experimental: (§8) FIGS. 6A and 6B. No change in FoxM1A protein and no cytotoxicity in non-proliferating myoblasts. Human myoblasts were treated with cpd. 3 (0.1, 1 and 10 μM) for 5 days under differentiating conditions (in the absence of serum), and total protein extracts analyzed by SDS PAGE and Western Blot for FoxM1A and actin protein levels. FIG. 6A, FoxM1A and actin Western blots from samples treated without (control) or with cpd. 3 (0.1, 1 and 10 μM). Note that FoxM1A protein was undetectable; FIG. 6B, Protein levels of actin. Data represent means±SEM of 3 independent observations. Statistical comparison was performed by one-way ANOVA followed by Dunnet's post-hoc test.
(§9) To assess if alternative splicing of FoxM1 towards FoxM1A is present also in cells that are not proliferating, the same human primary myoblasts were differentiated to investigate if FoxM1 expression is also present and can be modulated similarly under those conditions. Under differentiating conditions, FoxM1A was undetectable by Western Blot (FIG. 6A). Treatment with cpd.
as §7

[9] = tested on: FoxM1A protein; test: Western blot, FoxM1A protein in proliferating human myoblasts; assay type: cell-based; conditions: proliferating conditions (serum), 5 days, highest dose (10 μM)
Experimental: (§10) FIGS. 5A, 5B and 5C. Upregulation of FoxM1A protein correlates with cytotoxicity in myoblasts. Human myoblasts were treated with cpd. 3 (0.1, 1 and 10 μM) for 5 days under proliferating conditions (in the presence of serum), and total protein extracts analyzed by SDS PAGE and Western Blot for FoxM1A and actin protein levels. FIG. 5A, FoxM1A and actin Western blots from samples treated without (control) or with cpd. 3 (0.1, 1 and 10 μM); FIG. 5B, Protein levels of actin (surrogate for cell number); FIG. 5C, FoxM1A/actin ratio. Data represent means±SEM of 3 independent observations. Statistical comparison was performed by one-way ANOVA followed by Dunnet's post-hoc test. *, p<0.05, **, p<0.01, ***, p<0.001.
(§11) To assess if alternative splicing of FoxM1 towards FoxM1A results in meaningful changes in the protein levels and cell death, human primary myoblasts were treated under proliferating conditions to modulate FoxM1 expression and evaluate its consequence. Under proliferative conditions, FoxM1A was detectable by Western Blot, but at low concentrations […]. Treatment with cpd. […]
as §7

[10] = tested on: human primary myoblasts; test: Western blot, actin protein in differentiating (non-proliferating) human myoblasts; assay type: cell-based; conditions: differentiating conditions (no serum), 5 days, doses up to 10 μM
Experimental: as §8, §9, §7

[11] = tested on: human primary myoblasts; test: Western blot, actin protein (surrogate for cell number) in proliferating human myoblasts; assay type: cell-based; conditions: proliferating conditions (serum), 5 days, doses up to 10 μM
Experimental: as §10, §11, §7

| Structure (SMILES) | EC50 [1] [µM] | EC50 [2] [µM] | Increase of FoxM1A protein levels normalized to actin [3] [fold] | Effect on FoxM1A protein ([3]; day 1) | Increase of FoxM1A protein levels ([3]; day 2 (same samples)) [fold] | Potency in cytotoxicity [4] | Potency in reduction of Cell Index [5] | Reduction of actin protein ([6]; day 1) [%] | Reduction of actin protein ([6]; day 2) | Potency in MNT (micronucleus induction) [7] | FoxM1A levels normalized to actin [8] | Increase of FoxM1A protein level normalized to actin [9] [fold] | Actin protein level compared to controls [10] | Reduction of actin protein level compared to controls [11] [fold] |
| --- | --- | --- | --- | --- | --- | --- | --- | --- | --- | --- | --- | --- | --- | --- |
| CCN1CCC(c2cc(C)c3nc(-c4cc5c(C)nc(C)cn5n4)cc(=O)n3c2)CC1 [Compound 1, 2-(4,6-dimethylpyrazolo[1,5-a]pyrazin-2-yl)-7-(1-ethylpiperidin-4-yl)-9-methyl-4H-pyrido[1,2-a]pyrimidin-4-one] | 0.724 | 0.246 |  |  |  |  |  |  |  |  |  |  |  |  |
| CCc1nc(C)cn2nc(-c3cc(=O)n4cc(C5=CCNCC5)cc(C)c4n3)cc12 [Compound 2, 2-(4-ethyl-6-methylpyrazolo[1,5-a]pyrazin-2-yl)-9-methyl-7-(1,2,3,6-tetrahydropyridin-4-yl)-4H-pyrido[1,2-a]pyrimidin-4-one] | 0.014 | 0.016 | 28 | did not have any effect | ~3 | most potent | most potent | 18 | more than 90% | most potent |  |  |  |  |
| Cc1cn2nc(-c3cc(=O)n4cc(N5CCN(C)CC5)ccc4n3)cc2c(C)n1 [Compound 3, 2-(4,6-dimethylpyrazolo[1,5-a]pyrazin-2-yl)-7-(4-methylpiperazin-1-yl)-4H-pyrido[1,2-a]pyrimidin-4-one] | 3.54 | 1.21 |  |  |  |  |  |  |  |  | undetectable | 30 | not altered | 6 |
| Cc1cn2nc(-c3cc(=O)n4cc(N5CCNCC5)ccc4n3)cc2c(C)n1 [Compound 4, 2-(4,6-dimethylpyrazolo[1,5-a]pyrazin-2-yl)-7-(piperazin-1-yl)-4H-pyrido[1,2-a]pyrimidin-4-one] | 0.104 | 0.068 |  |  |  | most potent | most potent |  |  | most potent |  |  |  |  |
